How the values were obtained:
[1] = test system: human PCSK9 locus; experiment: Secreted PCSK9 by ELISA in Huh7 cells transfected with mRNA and gRNA; type: cell-based; conditions: for Secreted PCSK9 / Percent reduction in PCSK9 secretion / Average percent reduction in PCSK9 secretion: Huh7 cells; for Secreted PCSK9: 6 days post-transfection, normalized to total cell count; for Percent reduction in PCSK9 secretion / Average percent reduction in PCSK9 secretion: LTRP5-ADD-ZIM3 mRNA; for Percent reduction in PCSK9 secretion: day 6, relative to non-targeting gRNA control; for Average percent reduction in PCSK9 secretion: day 6, averaged from the two doses
Method: To assess PCSK9 secretion, seeded Huh7 cells were transfected with mRNA encoding a catalytically-active CasX 676, dXR1, or LTRP5-ADD-ZIM3 and a gRNA with scaffold 316 and spacer targeting either the B2M or PCSK9 locus. Media supernatant was harvested at 6, 18, 36, and 87 days post-transfection to assess level of PCSK9 secretion by ELISA. Levels of PCSK9 secretion were normalized to total cell count. As an additional control, PCSK9 secretion was also measured in the media supernatant harvested from wells containing untreated, naïve cells.
The following three human hepatocyte cancer cell lines were used in this experiment: HepG2 cells, Hep3B cells, and Huh7 cells. ˜15,000 cells of each cell line were seeded per well; the next day, seeded cells were transfected with mRNA encoding a catalytically-active CasX 676, dXR1, or LTRP5-ADD-ZIM3 and a gRNA with scaffold 316 and spacer targeting either the B2M or PCSK9 locus (see Table 23 for specific spacers and sequences). Media supernatant was harvested at 4 days post-transfection to assess level of PCSK9 secretion by ELISA, and levels of PCSK9 secretion were normalized to total cell count and illustrated in FIGS. 11A-11C. Culturing of treated Huh7 cells continued, and media supernatant was harvested at 14 and 27 days post-transfection for measuring PCSK9 secretion by ELISA. As an additional experimental control, PCSK9 secretion was also measured in the media supernatant harvested from wells containing untreated, naïve cells.
To assess PCSK9 secretion, seeded Huh7 cells were co-transfected with mRNA encoding for LTRP5-ADD-ZIM3 and a gRNA with scaffold 316 and spacer targeting the PCSK9 locus using Lipofectamine™ 3000. Two doses of total RNA input at a 2:1 mass ratio of mRNA to gRNA were used for screening: 50 ng mRNA:25 ng gRNA and 25 ng mRNA:12.5 ng gRNA. Media supernatant was harvested at 6 days post-transfection to assess level of PCSK9 secretion by ELISA (Table 74). Levels of PCSK9 secretion were normalized to total cell count. As an additional control, PCSK9 secretion was also measured in the media supernatant harvested from cells transfected with mRNA encoding for mScarlet.

[2] = test system: HBEGF; type: cell-based, human; conditions: HEK293T, dCasX491 fusion, scaffold 174 spacer 34.28, 2 ng/mL diphtheria toxin for 48 hours
[3] = LTRP5-ADD-ZIM3 mRNA + gRNA scaffold 316, 25 ng mRNA:12.5 ng gRNA
[4] = LTRP5-ADD-ZIM3 mRNA + gRNA scaffold 316, 50 ng mRNA:25 ng gRNA

Substance	Secreted PCSK9 [1, 3] [ng/mL]	Secreted PCSK9 [1, 4] [ng/mL]	Percent reduction in PCSK9 secretion ([1]; 25 ng mRNA:12.5 ng gRNA) [%]	Percent reduction in PCSK9 secretion ([1]; 50 ng mRNA:25 ng gRNA) [%]	Average percent reduction in PCSK9 secretion [1] [%]	secreted PCSK9 repression compared with spacer 6.1 paired with CasX 676 ([1]; Huh7, LTRP5-ADD-ZIM3 mRNA + gRNA scaffold 316, through day 36)	log 2(fold change) of abundance before and after selection [2]
TG-06-143 (guide GAAUCAAUCCUACUGUGGAC; listed as RNA, chemistry not given here)	22.33	38.69	68.66	52.97	60.81	–	–
TG-06-144 (guide GUGGGCAGCGAGGAGUCCAC; listed as RNA, chemistry not given here)	29	23.42	59.29	71.53	65.41	–	–
TG-06-145 (guide UGGGUCCACCUUGUCUCCUG; listed as RNA, chemistry not given here)	18.54	15.8	73.98	80.8	77.39	–	–
TG-06-146 (guide GAAGUCUCACUGGUCAGCAG; listed as RNA, chemistry not given here)	20.34	40.84	71.45	50.36	60.9	–	–
TG-06-147 (guide GUGUUUCCUGGGUCCACCUU; listed as RNA, chemistry not given here)	37.43	53.6	47.46	34.85	41.15	–	–
TG-06-148 (guide GCCGGGCCCACCUUUUCAGU; listed as RNA, chemistry not given here)	44.77	71.46	37.16	13.15	25.15	–	–
TG-06-149 (guide AGCCCAGUUAGGAUUUGGGA; listed as RNA, chemistry not given here)	38.33	21.18	46.21	74.26	60.23	–	–
TG-06-150 (guide UCCCUCUGCGCGUAAUCUGA; listed as RNA, chemistry not given here)	39.59	18.33	44.42	77.73	61.08	–	–
TG-06-151 (guide CUCUGCGCGUAAUCUGACGC; listed as RNA, chemistry not given here)	66.42	53.44	6.77	35.05	20.91	–	–
TG-06-152 (guide GCCUCGCCCUCCCCAAACAG; listed as RNA, chemistry not given here)	57.43	36.95	19.39	55.09	37.24	–	–
TG-06-153 (guide GUUAAUGUUUAAUCAGAUAG; listed as RNA, chemistry not given here)	86.58	73.23	21.52	10.99	5.27	–	–
TG-06-155 (guide GCAGCGACGUCGAGGCGCUC; listed as RNA, chemistry not given here)	56.36	29.45	20.89	64.21	42.55	–	–
TG-06-158 (guide GGAGCAGGGCGCGUGAAGGG; listed as RNA, chemistry not given here)	31.72	9.39	55.48	88.59	72.03	–	–
TG-06-159 (guide GCGCGCCCCUUCACGCGCCC; listed as RNA, chemistry not given here)	80.84	53.15	13.47	35.4	10.97	–	–
TG-06-160 (guide CGCGCCCUGCUCCUGAACUU; listed as RNA, chemistry not given here)	48.67	20.63	31.69	74.93	53.31	–	–
TG-06-161 (guide GCUCCUGCACAGUCCUCCCC; listed as RNA, chemistry not given here)	53.16	29.55	25.38	64.08	44.73	–	–
TG-06-168 (guide GUGGGAAGGUUCGCGGGGUU; listed as RNA, chemistry not given here)	50.96	19.1	28.47	76.78	52.62	–	–
TG-06-169 (guide CGGGGUUGGGAGACCCGGAG; listed as RNA, chemistry not given here)	62.55	66.39	12.2	19.3	15.75	–	–
TG-06-170 (guide UCGGCCUCCGGGUCUCCCAA; listed as RNA, chemistry not given here)	72.96	64.19	2.41	21.98	9.79	–	–
TG-06-171 (guide CAGUACGUUCCAGGCAUUCA; listed as RNA, chemistry not given here)	55.95	52.41	21.46	36.3	28.88	–	–
TG-06-172 (guide GCUGAAACAGAUGGAAUACU; listed as RNA, chemistry not given here)	59.31	44.44	16.75	45.99	31.37	–	–
TG-06-342 (guide AAUUACAGGCAACAGGAAGG; listed as RNA, chemistry not given here)	–	–	5.6	–	–	–	–
TG-06-344 (guide CAGUUUCUGCCUCGCCGCGG; listed as RNA, chemistry not given here)	–	–	–	0.01	–	–	–
TG-06-352 (guide UCCCUCACCAAUUACCCCUC; listed as RNA, chemistry not given here)	–	–	–	–	–	effective repression	–
TG-06-1046 (guide UCUCUUACAUGGGGGGAAAC; listed as RNA, chemistry not given here)	–	–	–	4.1	–	–	–
ZIM3: human ZIM3 KRAB domain, SEQ ID NO: 128 [reference compound]	–	–	–	–	–	–	1.7787
standard ZNF10: human ZNF10 KRAB domain, SEQ ID NO: 129 [reference compound]	–	–	–	–	–	–	1.3637

Source: patent US12594349B2, “Compositions and methods for the targeting of PCSK9” (Scribe Therapeutics Inc., priority 2022, dated 2026)
